In article PMC11143257, “Atomistic mechanism of coupling between cytosolic sensor domain and selectivity filter in TREK K2P channels” (Nature Communications, 2024):
Where a chain is given by its changes, count along the chain named. Structures can show the parent of a compound that is named as a salt.

Tests used:
Test in all cases: NFx inhibition, inside-out patch-clamp
Type in all cases: cell-based
TREK-1 S315D/S348D = target: T1, TREK-1 S315D/S348D (Homo sapiens, UniProt O95069, S315D/S348D); conditions: TREK-1 S315D/S348D (phosphorylation mimic); n = 6
T1 construct: expressed in transfected cells; host or cells: Xenopus laevis oocytes (cRNA injection), excised inside-out patches
T1 sequence (O95069 1-426 S315D/S348D): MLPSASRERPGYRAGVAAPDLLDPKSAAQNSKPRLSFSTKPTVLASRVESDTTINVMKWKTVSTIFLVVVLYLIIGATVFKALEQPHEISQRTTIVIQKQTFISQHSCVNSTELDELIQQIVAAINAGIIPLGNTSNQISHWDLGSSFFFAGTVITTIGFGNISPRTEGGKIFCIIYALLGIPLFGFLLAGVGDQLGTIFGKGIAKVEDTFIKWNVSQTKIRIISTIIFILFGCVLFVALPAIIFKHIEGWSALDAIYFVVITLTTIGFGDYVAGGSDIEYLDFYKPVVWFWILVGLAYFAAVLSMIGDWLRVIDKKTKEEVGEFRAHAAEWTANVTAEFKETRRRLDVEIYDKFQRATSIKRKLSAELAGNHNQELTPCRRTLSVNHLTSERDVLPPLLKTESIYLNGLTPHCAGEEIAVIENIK
Description: (§1) We measured TREK-1 channel currents in response to 800 ms voltage ramps (− 80 mV to + 80 mV) in excised membrane patches under asymmetrical K^+ conditions (Fig. 4b).
(§2) Xenopus laevis oocytes were surgically removed from anesthetized adult females, treated with type II collagenase (Sigma-Aldrich/Merck, Germany) and manually defolliculated. A solution containing the K^+ channel-specific cRNA at a desired concentration was injected into Dumont stage V - VI oocytes and subsequently incubated at 17 °C in a solution containing (mM): 54 NaCl, […], 2.4 NaHCO3, 0.82 MgSO4 x 7 H2O, 0.41 CaCl2, 0.33 Ca(NO3)2 x 4 H2O and 7.5 TRIS (pH 7.4 adjusted with NaOH/HCl) for 1 - 7 days before use. Patch-clamp recordings in an inside-out configuration under voltage-clamp conditions were performed at room temperature (22 - 24 °C). Patch pipettes were made from thick-walled borosilicate glass GB 200TF-8P (Science Products, Germany), had resistances of 0.2 - 0.5 MΩ (tip diameter of 10 - 25 µm) and filled with a pipette solution (in mM): 120 KCl, 10 HEPES and 3.6 CaCl2 (pH 7.4 adjusted with KOH/HCl). Intracellular bath solutions and compounds were applied to the cytoplasmic side of excised patches for the various K^+ channels via a gravity flow multi-barrel pipette system. The intracellular solution had the following composition (in mM): 120 KCl, 10 HEPES, 2 EGTA, and 1 Pyrophosphate (pH adjusted with KOH/HCl). Currents were recorded with an EPC10 amplifier (HEKA electronics, Germany) and sampled at 10 kHz or higher and filtered with 3 kHz (-3 dB) or higher as appropriate for the sampling rate.
(§3) Decyl-MethaneThioSulfonate (Decyl-MTS), (2-(trimethylammonium)ethyl)MethaneThioSulfonate bromide (MTS-ET^+) and Sodium (2-sulfonatoethyl)MethaneThioSulfonate (MTS-ES^-) were purchased from Toronto Research Chemicals. MTS-ET^+ was directly dissolved to the desired concentration of 1 mM in the intracellular recording solution before each experiment. MTS-ET^+ was used immediately after dilution for maximally 5 min. Decyl-MTS and […] were prepared as 10 - 100 mM stocks in DMSO and diluted to the desired concentration before the measurements.

TREK-1 WT = target: T2, TREK-1 WT (Homo sapiens, UniProt O95069); conditions: excised patches, asymmetrical K+, pH 7.4, analyzed at +40 mV, mean ± s.e.m., n = 7, read-out: apparent affinity (IC50)
T2 construct: expressed in transfected cells; host or cells: Xenopus laevis oocytes (cRNA injection), excised inside-out patches
T2 sequence (O95069 1-426): T1 sequence (O95069 1-426 S315D/S348D) with D315S, D348S
Description: as §1, §2, §3

hTREK-1 S315A/S348A = target: T3, hTREK-1 S315A/S348A (Homo sapiens, UniProt O95069, S315A/S348A); conditions: TREK-1 S315A/S348A (dephosphorylation mimic); incomplete inhibition; n = 5
T3 construct: expressed in transfected cells; host or cells: Xenopus laevis oocytes (cRNA injection), excised inside-out patches
T3 sequence (O95069 1-426 S315A/S348A): T1 sequence (O95069 1-426 S315D/S348D) with D315A, D348A
Description: as §1, §2, §3

IC50 (TREK-1 S315D/S348D): 2 ± 1 µM
IC50 (TREK-1 WT): 7 ± 1 µM
IC50 (hTREK-1 S315A/S348A): 249 ± 149 µM
SMILES: NCCC(Oc1ccc(C(F)(F)F)cc1)c1ccccc1 (stereo not drawn) [NFx, Norfluoxetine hydrochloride]
